# ± gives the expanded uncertainty stated by the source.
# Experiments:
# [1] = 100 kPa, Liquid; for speed of sound: Frequency=3 MHz, Single path-length method; for mass density: Vibrating tube method
# [2] = refractive index (Na D-line) (dimensionless); conditions: 100 kPa, Liquid, Standard Abbe refractometry
# [3] = xn = mol fraction of the nth substance listed; conditions: 100 kPa, Liquid, x1 = 1; for speed of sound: Frequency=3 MHz, Single path-length method; for mass density: Vibrating tube method
# [4] = refractive index (Na D-line) (dimensionless); xn = mol fraction of the nth substance listed; conditions: 100 kPa, Liquid, Standard Abbe refractometry, x1 = 1
SMILES,speed of sound ([1]; 293.15 K) [m/s],mass density ([1]; 293.15 K) [kg/m3],speed of sound ([1]; 298.15 K) [m/s],mass density ([1]; 298.15 K) [kg/m3],speed of sound ([1]; 303.15 K) [m/s],mass density ([1]; 303.15 K) [kg/m3],speed of sound ([1]; 313.15 K) [m/s],mass density ([1]; 313.15 K) [kg/m3],speed of sound ([1]; 323.15 K) [m/s],mass density ([1]; 323.15 K) [kg/m3],refractive index ([2]; 293.15 K),refractive index ([2]; 298.15 K),refractive index ([2]; 303.15 K),refractive index ([2]; 313.15 K),refractive index ([2]; 323.15 K),speed of sound ([3]; 293.15 K) [m/s],mass density ([3]; 293.15 K) [kg/m3],speed of sound ([3]; 303.15 K) [m/s],mass density ([3]; 303.15 K) [kg/m3],speed of sound ([3]; 313.15 K) [m/s],other results
CN(C)CCOCCO [2-(2-dimethylaminoethoxy)ethanol],1403.6 ± 2.4,954 ± 4,1386.7 ± 2.4,950 ± 4,1369.9 ± 2.4,946 ± 4,1336.8 ± 2.4,938 ± 4,1303.9 ± 2.4,930 ± 4,1.442 ± 0.006,1.44 ± 0.006,1.438 ± 0.006,1.435 ± 0.006,1.431 ± 0.006,–,–,–,–,–,–
NCCO [2-aminoethan-1-ol],1734.2 ± 1.7,1016 ± 4,1718.3 ± 1.7,1012 ± 4,1702.2 ± 1.7,1008 ± 4,1669.4 ± 1.7,1000 ± 4,1637.3 ± 1.7,992 ± 4,1.455 ± 0.006,1.453 ± 0.006,1.451 ± 0.006,1.447 ± 0.006,1.443 ± 0.006,–,–,–,–,–,–
CN(C)CCCO [3-dimethylamino-1-propanol],1395.8 ± 1.7,885 ± 4,1377.3 ± 1.7,881 ± 4,1358.8 ± 1.7,877 ± 4,1322.1 ± 1.7,869 ± 4,1285.7 ± 1.7,860 ± 4,1.437 ± 0.006,1.435 ± 0.006,1.433 ± 0.006,1.429 ± 0.006,1.425 ± 0.006,–,–,–,–,–,–
NCc1ccccc1 [benzylamine],1579.7 ± 1.7,983 ± 4,1560.1 ± 1.7,978 ± 4,1540.2 ± 1.7,974 ± 4,1500 ± 1.7,965 ± 4,1461.1 ± 1.7,957 ± 4,1.544 ± 0.006,1.542 ± 0.006,1.539 ± 0.006,1.534 ± 0.006,1.529 ± 0.006,–,–,–,–,–,–
C[S+](C)[O-] [dimethyl sulfoxide],1503.9 ± 1.5,1100 ± 4,1486.8 ± 1.5,1095 ± 4,1469.9 ± 1.5,1090 ± 4,1436.3 ± 1.5,1080 ± 4,1403 ± 1.5,1070 ± 4,1.479 ± 0.006,1.477 ± 0.006,1.475 ± 0.006,1.47 ± 0.006,1.466 ± 0.006,–,–,–,–,–,–
C[S+](C)[O-] [dimethyl sulfoxide] + CN(C)CCCO,–,–,–,–,–,–,–,–,–,–,–,–,–,–,–,1503.9 ± 1.5,1100 ± 4,1469.9 ± 1.5,1090 ± 4,1436.3 ± 1.5,mass density ([3]; 313.15 K): 1080 ± 4 kg/m3; speed of sound ([3]; 323.15 K): 1403 ± 1.5 m/s; mass density ([3]; 323.15 K): 1070 ± 4 kg/m3; refractive index ([4]; 293.15 K): 1.479 ± 0.006; refractive index ([4]; 303.15 K): 1.475 ± 0.006; refractive index ([4]; 313.15 K): 1.47 ± 0.006; refractive index ([4]; 323.15 K): 1.466 ± 0.006
C[S+](C)[O-] [dimethyl sulfoxide] + CN(C)CCOCCO,–,–,–,–,–,–,–,–,–,–,–,–,–,–,–,1503.9 ± 1.5,1100 ± 4,1469.9 ± 1.5,1090 ± 4,1436.3 ± 1.5,mass density ([3]; 313.15 K): 1080 ± 4 kg/m3; speed of sound ([3]; 323.15 K): 1403 ± 1.5 m/s; mass density ([3]; 323.15 K): 1070 ± 4 kg/m3; refractive index ([4]; 293.15 K): 1.479 ± 0.006; refractive index ([4]; 303.15 K): 1.475 ± 0.006; refractive index ([4]; 313.15 K): 1.47 ± 0.006; refractive index ([4]; 323.15 K): 1.466 ± 0.006
C[S+](C)[O-] [dimethyl sulfoxide] + NCCO,–,–,–,–,–,–,–,–,–,–,–,–,–,–,–,1503.9 ± 1.5,1100 ± 4,1469.9 ± 1.5,1090 ± 4,1436.3 ± 1.5,mass density ([3]; 313.15 K): 1080 ± 4 kg/m3; speed of sound ([3]; 323.15 K): 1403 ± 1.5 m/s; mass density ([3]; 323.15 K): 1070 ± 4 kg/m3; refractive index ([4]; 293.15 K): 1.479 ± 0.006; refractive index ([4]; 303.15 K): 1.475 ± 0.006; refractive index ([4]; 313.15 K): 1.47 ± 0.006; refractive index ([4]; 323.15 K): 1.466 ± 0.006
C[S+](C)[O-] [dimethyl sulfoxide] + NCc1ccccc1,–,–,–,–,–,–,–,–,–,–,–,–,–,–,–,1503.9 ± 1.5,1100 ± 4,1469.9 ± 1.5,1090 ± 4,1436.3 ± 1.5,mass density ([3]; 313.15 K): 1080 ± 4 kg/m3; speed of sound ([3]; 323.15 K): 1403 ± 1.5 m/s; mass density ([3]; 323.15 K): 1070 ± 4 kg/m3; refractive index ([4]; 293.15 K): 1.479 ± 0.006; refractive index ([4]; 303.15 K): 1.475 ± 0.006; refractive index ([4]; 313.15 K): 1.47 ± 0.006; refractive index ([4]; 323.15 K): 1.466 ± 0.006
